Measurements published in patent publication EP0415304A2, “Dipyrido[3,2-b:2',3'-e][1,4]oxazepin (and thiazepin)-6(5H)-ones and their use in the prevention or treatment of aids” (BOEHRINGER INGELHEIM PHARMACEUTICALS INC., priority 1989, dated 1991).

Biological target: T1, HIV-1 RT (Human immunodeficiency virus type 1 group M subtype B, UniProt P03367)
T1 construct: Reverse transcriptase enzyme from the LAV strain of Human Immunodeficiency Virus (HIV-1) (1) was isolated from the bacterial strain JM109; made in house; host or cells: E. coli JM109, clone pBRTprtl+ in vector pIB121 under the lac promoter
Assay: Reverse Transcriptase (RT) Assay: inhibition of RNA-dependent DNA polymerase activity
Format: biochemical
Conditions: tested at a concentration of 10µg/ml; read-out: inhibit the enzyme (percent inhibition of RNA-dependent DNA polymerase activity of HIV-1 RT)
Source text: Utilizing the Reverse Transcriptase (RT) Assay described below, compounds can be tested for their ability to inhibit the RNA-dependent DNA polymerase activity of HIV-1 RT. The compound described in Example 1, which appears below, was so tested.
Among the enzymes for which Human Immunodeficiency Virus (HIV-1) encodes is a reverse transcriptase (1), so-named because it transcribes a DNA copy from an RNA template. This activity can be quantitatively measured in a cell-free enzyme assay which has been previously described (2), and is based upon the observation that reverse transcriptase is able to use a synthetic template [poly r(C) primed with oligo d(G)] to transcribe a radio-labelled, acid-precipitable DNA strand utilizing ³H-dGTP as a substrate.
Reverse transcriptase enzyme from the LAV strain of Human Immunodeficiency Virus (HIV-1) (1) was isolated from the bacterial strain JM109 (3) expressing the DNA clone pBRTprtl+ (2) which is under the control of the lac promotor in the expression vector pIB121 (4). […]
The 2X concentrated stock reaction mixture is aliquoted and stored at -20°C. […] Each vial receives 2 ml of scintillation cocktail and is counted in a Beckman beta counter. […]

Q: Which inhibition at 10 µg/mL does the source give for CCCN1C(=O)c2cccnc2Oc2ncccc21 [Example 1, 5,6-Dihydro-5-propyl-6H-dipyrido[3,2-b:2′,3′-e][1,4]oxazepin-6-one] here?
A: The inhibition at 10 µg/mL was 30%.
